According to the kinase profiling compilation of Christmann-Franck et al. (2016):

What was measured:
Assay in all cases: radiometric filter-binding kinase assay, Kinase HotSpot
Conditions in all cases: compound 0.5 µM; ATP 10 µM
STK24 (human) = STK24 (human) (UniProt Q9Y6E0)
DSTYK (human) = DSTYK (human) (UniProt Q6XUX3)
MAPK12 (human) = MAPK12 (human) (UniProt P53778)
CAMK1G (human) = CAMK1G (human) (UniProt Q96NX5)
FER (human) = FER (human) (UniProt P16591)
CHUK (human) = CHUK (human) (UniProt O15111)
MST4 (human) = MST4 (human) (UniProt Q9P289)
AKT3 (human) = AKT3 (human) (UniProt Q9Y243)
IRAK4 (human) = IRAK4 (human) (UniProt Q9NWZ3)
CDK7 CCNH MNAT1 (human) = CDK7 CCNH MNAT1 (human) (UniProt P50613+P51948+P51946)
DYRK2 (human) = DYRK2 (human) (UniProt Q92630)
NEK3 (human) = NEK3 (human) (UniProt P51956)
CDK6 CCND1 (human) = CDK6 CCND1 (human) (UniProt Q00534+P24385)
ADRBK1 (human) = ADRBK1 (human) (UniProt P25098)
ADRBK1 (human), sequence (P25098 whole entry, looked up): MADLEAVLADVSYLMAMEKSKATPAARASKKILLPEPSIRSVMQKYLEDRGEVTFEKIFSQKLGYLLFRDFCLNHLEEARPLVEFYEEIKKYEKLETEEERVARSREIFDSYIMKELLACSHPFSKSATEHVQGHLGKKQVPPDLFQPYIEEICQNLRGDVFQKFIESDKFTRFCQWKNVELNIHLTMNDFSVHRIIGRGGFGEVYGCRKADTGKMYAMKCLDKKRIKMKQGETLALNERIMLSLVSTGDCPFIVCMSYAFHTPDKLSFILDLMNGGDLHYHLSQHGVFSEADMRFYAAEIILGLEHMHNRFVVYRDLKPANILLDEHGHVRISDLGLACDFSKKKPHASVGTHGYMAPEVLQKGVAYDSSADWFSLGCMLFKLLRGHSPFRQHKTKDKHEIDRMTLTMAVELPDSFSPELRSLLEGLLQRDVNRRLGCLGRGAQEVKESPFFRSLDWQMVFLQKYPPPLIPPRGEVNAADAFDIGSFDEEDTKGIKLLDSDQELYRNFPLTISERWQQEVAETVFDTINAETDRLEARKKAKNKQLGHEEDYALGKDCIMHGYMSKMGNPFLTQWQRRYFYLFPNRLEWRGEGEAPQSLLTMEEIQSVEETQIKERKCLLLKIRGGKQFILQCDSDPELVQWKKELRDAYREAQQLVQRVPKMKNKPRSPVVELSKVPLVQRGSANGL

CAMK1 (human) = CAMK1 (human) (UniProt Q14012)
IRAK1 (human) = IRAK1 (human) (UniProt P51617)
DYRK1A (human) = DYRK1A (human) (UniProt Q13627)
PTK2B (human) = PTK2B (human) (UniProt Q14289)
STK33 (human) = STK33 (human) (UniProt Q9BYT3)
TAOK3 (human) = TAOK3 (human) (UniProt Q9H2K8)
SRPK1 (human) = SRPK1 (human) (UniProt Q96SB4)
CSF1R (human) = CSF1R (human) (UniProt P07333)
CSF1R (human), sequence (P07333 whole entry, looked up): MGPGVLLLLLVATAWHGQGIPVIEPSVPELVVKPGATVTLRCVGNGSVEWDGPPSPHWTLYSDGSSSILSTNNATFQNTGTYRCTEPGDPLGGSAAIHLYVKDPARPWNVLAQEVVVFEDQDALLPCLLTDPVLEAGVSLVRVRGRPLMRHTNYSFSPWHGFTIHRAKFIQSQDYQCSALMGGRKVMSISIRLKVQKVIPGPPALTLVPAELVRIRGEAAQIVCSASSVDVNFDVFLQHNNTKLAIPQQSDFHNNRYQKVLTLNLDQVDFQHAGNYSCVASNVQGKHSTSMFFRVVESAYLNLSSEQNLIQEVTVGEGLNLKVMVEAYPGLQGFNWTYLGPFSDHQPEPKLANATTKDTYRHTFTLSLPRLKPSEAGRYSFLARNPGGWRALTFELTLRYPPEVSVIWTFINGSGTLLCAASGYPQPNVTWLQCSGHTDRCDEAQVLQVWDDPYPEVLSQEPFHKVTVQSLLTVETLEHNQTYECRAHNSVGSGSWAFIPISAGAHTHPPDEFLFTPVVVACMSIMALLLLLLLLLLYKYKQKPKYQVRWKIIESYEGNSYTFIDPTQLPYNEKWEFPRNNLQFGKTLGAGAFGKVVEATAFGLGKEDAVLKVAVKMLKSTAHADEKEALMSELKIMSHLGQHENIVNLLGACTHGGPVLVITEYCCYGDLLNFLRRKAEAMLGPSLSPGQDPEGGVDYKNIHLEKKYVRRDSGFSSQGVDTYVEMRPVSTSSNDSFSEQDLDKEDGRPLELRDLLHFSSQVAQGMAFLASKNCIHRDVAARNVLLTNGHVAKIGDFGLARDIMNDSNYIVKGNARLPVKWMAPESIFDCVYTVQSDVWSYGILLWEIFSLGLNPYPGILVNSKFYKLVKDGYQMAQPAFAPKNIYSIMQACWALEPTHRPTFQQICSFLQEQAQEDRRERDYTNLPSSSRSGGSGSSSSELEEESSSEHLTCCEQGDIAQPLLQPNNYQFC

ERBB2 (human) = ERBB2 (human) (UniProt P04626)
DYRK4 (human) = DYRK4 (human) (UniProt Q9NR20)
PTK2 (human) = PTK2 (human) (UniProt Q05397)
MYLK (human) = MYLK (human) (UniProt Q15746)
MINK1 (human) = MINK1 (human) (UniProt Q8N4C8)
MAPK14 (human) = MAPK14 (human) (UniProt Q16539)
MAPK14 (human), sequence (Q16539 whole entry, looked up): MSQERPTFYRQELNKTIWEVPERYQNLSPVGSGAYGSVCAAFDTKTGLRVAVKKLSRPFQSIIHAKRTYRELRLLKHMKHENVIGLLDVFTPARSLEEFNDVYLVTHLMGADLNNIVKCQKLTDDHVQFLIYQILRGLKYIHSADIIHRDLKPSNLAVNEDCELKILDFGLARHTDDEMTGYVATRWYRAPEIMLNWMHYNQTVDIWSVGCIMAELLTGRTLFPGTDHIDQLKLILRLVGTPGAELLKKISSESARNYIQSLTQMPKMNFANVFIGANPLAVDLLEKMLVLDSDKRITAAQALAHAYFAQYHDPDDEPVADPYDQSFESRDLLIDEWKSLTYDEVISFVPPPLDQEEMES

[1] = target: JAK1 JH1 catalytic (human) (UniProt P23458)
EPHA2 (human) = EPHA2 (human) (UniProt P29317)
SRPK2 (human) = SRPK2 (human) (UniProt P78362)
DAPK3 (human) = DAPK3 (human) (UniProt O43293)
BLK (human) = BLK (human) (UniProt P51451)
NLK (human) = NLK (human) (UniProt Q9UBE8)
MAPK8 (human) = MAPK8 (human) (UniProt P45983)
PAK7 (human) = PAK7 (human) (UniProt Q9P286)
PIM2 (human) = PIM2 (human) (UniProt Q9P1W9)
PIM2 (human), sequence (Q9P1W9 whole entry, looked up): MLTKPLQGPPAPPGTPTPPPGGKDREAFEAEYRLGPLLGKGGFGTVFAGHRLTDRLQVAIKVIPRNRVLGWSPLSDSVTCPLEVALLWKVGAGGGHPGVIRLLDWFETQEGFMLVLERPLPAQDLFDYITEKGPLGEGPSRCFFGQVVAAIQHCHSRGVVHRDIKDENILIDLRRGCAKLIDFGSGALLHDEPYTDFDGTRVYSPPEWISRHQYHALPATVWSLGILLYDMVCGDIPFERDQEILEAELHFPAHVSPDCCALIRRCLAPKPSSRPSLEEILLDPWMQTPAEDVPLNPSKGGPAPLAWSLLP

CDK9 CCNK (human) = CDK9 CCNK (human) (UniProt O75909+P50750)
FGFR1 (human) = FGFR1 (human) (UniProt P11362)
FGFR1 (human), sequence (P11362 whole entry, looked up): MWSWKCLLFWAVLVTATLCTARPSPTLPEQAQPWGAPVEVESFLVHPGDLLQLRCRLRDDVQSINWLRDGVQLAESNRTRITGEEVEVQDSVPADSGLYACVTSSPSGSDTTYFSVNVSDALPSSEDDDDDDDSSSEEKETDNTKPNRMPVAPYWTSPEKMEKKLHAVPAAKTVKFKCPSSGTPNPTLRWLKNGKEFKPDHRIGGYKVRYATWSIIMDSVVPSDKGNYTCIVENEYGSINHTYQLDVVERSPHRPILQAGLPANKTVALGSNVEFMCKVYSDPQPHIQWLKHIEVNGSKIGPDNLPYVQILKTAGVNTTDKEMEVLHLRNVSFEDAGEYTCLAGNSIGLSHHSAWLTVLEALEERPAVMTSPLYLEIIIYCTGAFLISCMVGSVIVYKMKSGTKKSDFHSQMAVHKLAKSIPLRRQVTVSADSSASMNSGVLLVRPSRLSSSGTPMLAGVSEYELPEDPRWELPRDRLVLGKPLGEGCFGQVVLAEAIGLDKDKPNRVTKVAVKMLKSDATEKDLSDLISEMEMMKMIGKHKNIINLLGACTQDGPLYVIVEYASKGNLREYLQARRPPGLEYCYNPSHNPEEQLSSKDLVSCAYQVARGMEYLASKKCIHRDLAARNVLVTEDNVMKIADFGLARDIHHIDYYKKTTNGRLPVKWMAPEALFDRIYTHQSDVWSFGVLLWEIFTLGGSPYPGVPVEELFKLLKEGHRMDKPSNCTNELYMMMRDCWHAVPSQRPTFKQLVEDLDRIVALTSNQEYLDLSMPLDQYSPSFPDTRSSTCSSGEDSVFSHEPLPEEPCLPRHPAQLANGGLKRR

ADRBK2 (human) = ADRBK2 (human) (UniProt P35626)
FGR (human) = FGR (human) (UniProt P09769)
FGR (human), sequence (P09769 whole entry, looked up): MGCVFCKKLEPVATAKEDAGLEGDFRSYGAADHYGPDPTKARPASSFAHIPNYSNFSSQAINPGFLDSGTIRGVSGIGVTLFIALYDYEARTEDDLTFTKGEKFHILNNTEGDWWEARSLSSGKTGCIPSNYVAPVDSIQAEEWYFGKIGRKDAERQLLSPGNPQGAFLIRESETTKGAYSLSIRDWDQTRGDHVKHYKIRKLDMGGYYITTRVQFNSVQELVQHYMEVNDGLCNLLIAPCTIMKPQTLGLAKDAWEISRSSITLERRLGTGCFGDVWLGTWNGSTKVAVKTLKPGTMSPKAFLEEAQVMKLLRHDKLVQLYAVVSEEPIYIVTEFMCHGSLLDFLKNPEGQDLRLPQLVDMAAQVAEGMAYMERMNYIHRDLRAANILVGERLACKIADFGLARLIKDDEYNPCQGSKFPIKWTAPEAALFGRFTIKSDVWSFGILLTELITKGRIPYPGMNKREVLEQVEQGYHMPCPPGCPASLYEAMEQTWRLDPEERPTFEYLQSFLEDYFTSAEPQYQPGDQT

NEK7 (human) = NEK7 (human) (UniProt Q8TDX7)

DSTYK (human), sequence (Q6XUX3 whole entry, looked up): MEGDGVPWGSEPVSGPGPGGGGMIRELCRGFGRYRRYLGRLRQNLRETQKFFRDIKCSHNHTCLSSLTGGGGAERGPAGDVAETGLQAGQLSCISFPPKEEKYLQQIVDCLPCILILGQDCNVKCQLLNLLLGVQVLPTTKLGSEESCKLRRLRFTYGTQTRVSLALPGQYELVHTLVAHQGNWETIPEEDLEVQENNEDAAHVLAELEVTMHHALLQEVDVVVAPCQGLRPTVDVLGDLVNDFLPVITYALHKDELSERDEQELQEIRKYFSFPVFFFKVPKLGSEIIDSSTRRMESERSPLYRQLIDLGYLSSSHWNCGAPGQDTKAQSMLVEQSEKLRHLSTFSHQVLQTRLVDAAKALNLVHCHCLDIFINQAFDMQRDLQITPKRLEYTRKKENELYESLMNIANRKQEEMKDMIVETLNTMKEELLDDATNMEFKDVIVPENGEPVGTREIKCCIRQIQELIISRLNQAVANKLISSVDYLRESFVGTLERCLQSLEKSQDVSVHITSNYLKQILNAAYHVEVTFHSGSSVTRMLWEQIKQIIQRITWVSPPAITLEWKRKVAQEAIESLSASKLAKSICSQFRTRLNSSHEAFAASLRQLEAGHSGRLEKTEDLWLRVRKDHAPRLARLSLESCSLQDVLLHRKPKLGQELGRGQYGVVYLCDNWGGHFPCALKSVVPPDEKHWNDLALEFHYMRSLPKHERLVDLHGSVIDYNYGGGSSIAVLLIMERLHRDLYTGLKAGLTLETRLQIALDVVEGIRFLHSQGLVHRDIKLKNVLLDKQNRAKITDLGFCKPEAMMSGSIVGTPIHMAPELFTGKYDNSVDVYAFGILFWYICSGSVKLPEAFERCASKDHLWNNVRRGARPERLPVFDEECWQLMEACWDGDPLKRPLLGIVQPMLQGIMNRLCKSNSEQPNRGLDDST
MAPK12 (human), sequence (P53778 whole entry, looked up): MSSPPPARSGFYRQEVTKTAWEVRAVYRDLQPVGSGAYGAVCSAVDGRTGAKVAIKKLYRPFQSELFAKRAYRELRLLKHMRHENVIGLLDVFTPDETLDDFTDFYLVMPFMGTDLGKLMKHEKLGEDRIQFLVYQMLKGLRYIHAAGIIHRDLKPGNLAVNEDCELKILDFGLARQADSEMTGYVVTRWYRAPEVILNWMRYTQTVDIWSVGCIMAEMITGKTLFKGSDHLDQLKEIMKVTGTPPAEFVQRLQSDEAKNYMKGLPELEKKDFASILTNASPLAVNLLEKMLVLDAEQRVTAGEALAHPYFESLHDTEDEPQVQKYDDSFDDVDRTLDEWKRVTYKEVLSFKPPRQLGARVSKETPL

`CC#CC(=O)Nc1cc2c(Nc3ccc(F)c(Cl)c3)ncnc2cn1` was tested, and the residual activity (STK24 (human)) was 107%, the residual activity (DSTYK (human)) was 91.1% and the residual activity (MAPK12 (human)) was 99.4%. The residual activity (CAMK1G (human)) was 99.2%, the residual activity (FER (human)) was 98.2% and the residual activity (CHUK (human)) was 92.1%. It also gave a residual activity (MST4 (human)) of 103%, a residual activity (AKT3 (human)) of 97.8% and a residual activity (IRAK4 (human)) of 102%. For the same compound, the residual activity (CDK7 CCNH MNAT1 (human)) was 101%, the residual activity (DYRK2 (human)) was 91.3% and the residual activity (NEK3 (human)) was 76.2%. It also gave a residual activity (CDK6 CCND1 (human)) of 99%, a residual activity (ADRBK1 (human)) of 98.3% and a residual activity (CAMK1 (human)) of 97.9%. It also gave a residual activity (IRAK1 (human)) of 104%, a residual activity (DYRK1A (human)) of 96.4% and a residual activity (PTK2B (human)) of 94.1%. It also gave a residual activity (STK33 (human)) of 88.5%, a residual activity (TAOK3 (human)) of 110% and a residual activity (SRPK1 (human)) of 94.8%. The residual activity (CSF1R (human)) was 101%, the residual activity (ERBB2 (human)) was 2.36% and the residual activity (DYRK4 (human)) was 98%. It also gave a residual activity (PTK2 (human)) of 102%, a residual activity (MYLK (human)) of 98.8% and a residual activity (MINK1 (human)) of 91.9%. The residual activity (MAPK14 (human)) was 101%, the residual activity [1] was 104% and the residual activity (EPHA2 (human)) was 103%. For the same compound, the residual activity (SRPK2 (human)) was 69.2%, the residual activity (DAPK3 (human)) was 97.8% and the residual activity (BLK (human)) was 21.3%. For the same compound, the residual activity (NLK (human)) was 99.7%, the residual activity (MAPK8 (human)) was 98.9% and the residual activity (PAK7 (human)) was 102%. It also gave a residual activity (PIM2 (human)) of 111%, a residual activity (CDK9 CCNK (human)) of 98.4% and a residual activity (FGFR1 (human)) of 91.1%. For the same compound, the residual activity (ADRBK2 (human)) was 103%, the residual activity (FGR (human)) was 89.6% and the residual activity (NEK7 (human)) was 98.2%.

`O=C1NC(=O)C(c2cn(CCCn3ccnc3)c3ccccc23)=C1Nc1ccccc1` showed a residual activity (STK24 (human)) of 51.7%, a residual activity (DSTYK (human)) of 102% and a residual activity (MAPK12 (human)) of 102%. It also gave a residual activity (CAMK1G (human)) of 84.6%, a residual activity (FER (human)) of 56.1% and a residual activity (CHUK (human)) of 105%. For the same compound, the residual activity (MST4 (human)) was 22.2%, the residual activity (AKT3 (human)) was 71% and the residual activity (IRAK4 (human)) was 89.5%. The residual activity (CDK7 CCNH MNAT1 (human)) was 96.3%, the residual activity (DYRK2 (human)) was 97.3% and the residual activity (NEK3 (human)) was 99.5%. The residual activity (CDK6 CCND1 (human)) was 83.1%, the residual activity (ADRBK1 (human)) was 97.1% and the residual activity (CAMK1 (human)) was 106%. For the same compound, the residual activity (IRAK1 (human)) was 118%, the residual activity (DYRK1A (human)) was 30.8% and the residual activity (PTK2B (human)) was 93.3%. It also gave a residual activity (STK33 (human)) of 82.9%, a residual activity (TAOK3 (human)) of 76.5% and a residual activity (SRPK1 (human)) of 99.5%. The residual activity (CSF1R (human)) was 97.5%, the residual activity (ERBB2 (human)) was 93.6% and the residual activity (DYRK4 (human)) was 89%. It also gave a residual activity (PTK2 (human)) of 104%, a residual activity (MYLK (human)) of 81.6% and a residual activity (MINK1 (human)) of 90.1%. It also gave a residual activity (MAPK14 (human)) of 88.3%, a residual activity [1] of 82.1% and a residual activity (EPHA2 (human)) of 101%. The residual activity (SRPK2 (human)) was 96.2%, the residual activity (DAPK3 (human)) was 104% and the residual activity (BLK (human)) was 90.9%. For the same compound, the residual activity (NLK (human)) was 97%, the residual activity (MAPK8 (human)) was 99.6% and the residual activity (PAK7 (human)) was 94.2%. The residual activity (PIM2 (human)) was 102%, the residual activity (CDK9 CCNK (human)) was 64.6% and the residual activity (FGFR1 (human)) was 78.5%. It also gave a residual activity (ADRBK2 (human)) of 97.9%, a residual activity (FGR (human)) of 86.3% and a residual activity (NEK7 (human)) of 102%.

Work on `Nc1cccc(-c2cc3c(Oc4cccc(O)c4)ncnc3[nH]2)c1` yielded a residual activity (STK24 (human)) of 64.2%, a residual activity (DSTYK (human)) of 83.4% and a residual activity (MAPK12 (human)) of 88.6%. The residual activity (CAMK1G (human)) was 99%, the residual activity (FER (human)) was 44% and the residual activity (CHUK (human)) was 102%. The residual activity (MST4 (human)) was 83.8%, the residual activity (AKT3 (human)) was 96.2% and the residual activity (IRAK4 (human)) was 88.2%. The residual activity (CDK7 CCNH MNAT1 (human)) was 94.2%, the residual activity (DYRK2 (human)) was 76.9% and the residual activity (NEK3 (human)) was 57.5%. For the same compound, the residual activity (CDK6 CCND1 (human)) was 82.2%, the residual activity (ADRBK1 (human)) was 108% and the residual activity (CAMK1 (human)) was 112%. The residual activity (IRAK1 (human)) was 91.4%, the residual activity (DYRK1A (human)) was 103% and the residual activity (PTK2B (human)) was 65.6%. For the same compound, the residual activity (STK33 (human)) was 80.3%, the residual activity (TAOK3 (human)) was 93.5% and the residual activity (SRPK1 (human)) was 107%. The residual activity (CSF1R (human)) was 13.6%, the residual activity (ERBB2 (human)) was 76.6% and the residual activity (DYRK4 (human)) was 101%. The residual activity (PTK2 (human)) was 88.4%, the residual activity (MYLK (human)) was 81.7% and the residual activity (MINK1 (human)) was 34.7%. For the same compound, the residual activity (MAPK14 (human)) was 98.1%, the residual activity [1] was 106% and the residual activity (EPHA2 (human)) was 48.2%. For the same compound, the residual activity (SRPK2 (human)) was 99.1%, the residual activity (DAPK3 (human)) was 94% and the residual activity (BLK (human)) was 38.1%. The residual activity (NLK (human)) was 87.7%, the residual activity (MAPK8 (human)) was 94.4% and the residual activity (PAK7 (human)) was 86.9%. It also gave a residual activity (PIM2 (human)) of 108%, a residual activity (CDK9 CCNK (human)) of 58.4% and a residual activity (FGFR1 (human)) of 39.3%. The residual activity (ADRBK2 (human)) was 101%, the residual activity (FGR (human)) was 5.28% and the residual activity (NEK7 (human)) was 99.4%.

`CCN(CC)CCNC(=O)c1c(C)[nH]c(/C=C2\C(=O)Nc3ccc(Cl)cc32)c1C` gave a residual activity (STK24 (human)) of 22.2%, a residual activity (DSTYK (human)) of 105% and a residual activity (MAPK12 (human)) of 96.6%. For the same compound, the residual activity (CAMK1G (human)) was 49.5%, the residual activity (FER (human)) was 17.7% and the residual activity (CHUK (human)) was 102%. It also gave a residual activity (MST4 (human)) of 73.2%, a residual activity (AKT3 (human)) of 84.2% and a residual activity (IRAK4 (human)) of 22.7%. It also gave a residual activity (CDK7 CCNH MNAT1 (human)) of 72.8%, a residual activity (DYRK2 (human)) of 82.7% and a residual activity (NEK3 (human)) of 94%. For the same compound, the residual activity (CDK6 CCND1 (human)) was 27.8%, the residual activity (ADRBK1 (human)) was 104% and the residual activity (CAMK1 (human)) was 75.9%. The residual activity (IRAK1 (human)) was 14.1%, the residual activity (DYRK1A (human)) was 47.2% and the residual activity (PTK2B (human)) was 30.5%. For the same compound, the residual activity (STK33 (human)) was 20.6%, the residual activity (TAOK3 (human)) was 45.5% and the residual activity (SRPK1 (human)) was 95.9%. For the same compound, the residual activity (CSF1R (human)) was 7.41%, the residual activity (ERBB2 (human)) was 102% and the residual activity (DYRK4 (human)) was 97.9%. It also gave a residual activity (PTK2 (human)) of 25.8%, a residual activity (MYLK (human)) of 17.6% and a residual activity (MINK1 (human)) of 4.4%. For the same compound, the residual activity (MAPK14 (human)) was 103%, the residual activity [1] was 65.8% and the residual activity (EPHA2 (human)) was 93.5%. It also gave a residual activity (SRPK2 (human)) of 93.7%, a residual activity (DAPK3 (human)) of 54.3% and a residual activity (BLK (human)) of 15.8%. For the same compound, the residual activity (NLK (human)) was 101%, the residual activity (MAPK8 (human)) was 97.2% and the residual activity (PAK7 (human)) was 58.9%. The residual activity (PIM2 (human)) was 101%, the residual activity (CDK9 CCNK (human)) was 40.1% and the residual activity (FGFR1 (human)) was 20.3%. For the same compound, the residual activity (ADRBK2 (human)) was 97.8%, the residual activity (FGR (human)) was 11.5% and the residual activity (NEK7 (human)) was 99.3%.
